Experimental data reported in patent publication US9353067B2, “Heterocyclic compounds and uses thereof in the treatment of sexual disorders” (ATIR Holding S.A., priority 2011, dated 2016).

What was measured:
[1] = Hydrolysis (half-life) of esterified derivatives of R-55 in human plasma; assay type: in vitro ADME; conditions: for half-life at 0.19 mg/ml: fresh human plasma, hydrolysis of ester to R-55, human plasma, read-out: T1/2 in human plasma; for half-life at 0.19 mg/ml / % L-207 (hydrolysis of L-207 to R-55): 37° C.; for rate of hydrolysis (in words): human and rat plasma, comparison of acyl moieties; for % L-207 (hydrolysis of L-207 to R-55): human plasma
Method: (§1) 50 μl of dimethyl sulfoxide containing 0.2 mg of the tested derivative was added to 1 ml of fresh plasma (human or rat) in a sterile Eppendorf tube. The samples were then incubated at 37° C., and 100 μl samples were removed at various times, up to 120 minutes after incubation. The plasma samples were immediately added to 1 ml acetonitrile. After vigorous mixing by vortex, the samples were centrifuged for 10 minutes at 2000 rotations per minute at 4° C. 0.95 ml of the supernatant was then removed and stored at −20° C. until determination of the concentrations of R-55 and its esterified derivative by LCMS analysis.

[2] = Hydrolysis (half-life) of esterified derivatives of R-55 in rat plasma; assay type: in vitro ADME; conditions: 37° C.; for half-life at 0.19 mg/ml: fresh rat plasma, hydrolysis of ester to R-55, rat plasma, read-out: T1/2 in rat plasma; for % L-207 (hydrolysis of L-207 to R-55): rat plasma
Method: as §1

[3] = Solubility of L-207 in solvents; assay type: physicochemical
Source text: The compound was soluble in dimethylformamide, dimethyl sulfoxide, tetrahydrofuran, chloroform, dichloromethane, and HCl in diethyl ether, and non-soluble in water.

[4] = biological target: D4.4 type dopamine receptor (Homo sapiens (Human), UniProt P21917); test: Competitive binding to D4.4 receptor ([3H]-YM-09151-2); conditions: human recombinant receptor in CHO cells, [3H]-YM-09151-2 0.3 nM
Method: R-55 (which comprises a 3-hydroxyphenyl moiety) and its isomers L-221 (comprising a 4-hydroxyphenyl moiety) and L-238 (comprising a 2-hydroxyphenyl moiety) were assayed for competitive binding to D2 SHORT and D4.4 type dopamine receptors, in order to assess their efficacy for treating sexual disorders. Both receptor types are expressed as human recombinant proteins in CHO cells, as described, for example, in Jarvis et al. (1973); Van Tol et al. (1991) and Van Tol et al. (1992).
Determination of binding to D4.4 receptor was performed using [^3H]-YM-09151-2 (70-87 Ci/mmol, 0.3 nM), as a radioligand, in the presence of various concentrations of the tested compound. Reactions were carried out in 50 mM TRIS-HCl (pH 7.4) containing 5 mM MgCl2, 5 mM EDTA, 5 mM KCl and 1.5 mM CaCl2, for 60 minutes at 22° C. The reaction was terminated by rapid vacuum filtration onto glass fiber filters. Radioactivity trapped onto the filters was determined (counted) and compared to control values in order to accurately evaluate any interaction of the tested compound(s) with the cloned dopamine D4.4 binding site.

[5] = biological target: PARP-1 (Homo sapiens (Human), UniProt P09874); test: Universal Chemiluminescent PARP Assay; assay type: biochemical; conditions: average results from two assays
Method: In addition, R-55 and its hydrochloride salt were assayed for PARP (poly(ADP-ribose)polymerase) inhibitory activity, as some quinazolinone derivatives, particularly derivatives comprising quinazolinone linked via a three-carbon moiety to substituted pyridinyl and piperazinyl moieties, have been identified as potent PARP inhibitors [U.S. Patent Application Publication No. 2004/0077667; Iwashita et al., FEBS Lett 579:1389-1393(2005); Hattori et al., J Med Chem 47:4151-4154(2004)]. PARP plays a natural role in repair of DNA damage, and inhibition of PARP may lead to undesirable side effects in any treatment of a sexual disorder.
Inhibition of PARP-1 was assayed using a Universal Chemiluminescent PARP Assay (Trevigen, Inc.).
The tested compounds were diluted from 2.1 mg of powder in 25 μl of DMSO. The tested compounds were diluted to 100 μM in 1% DMSO/99% ethanol. 3-Aminobenzamide (3-AB), a commercially available weak PARP inhibitor, was used as a positive control. The activity of PARP was quantified as relative light units (RLU). Each of the tested compounds was assayed twice.
In Assay 1, the 100 μM stock solution was diluted to 40 μM in 1×PARP buffer. The compounds were then serially diluted down to 0.4 μM. Each tested compound was
further diluted 1:4 during the assay, so the final concentrations ranged from 10 μM to 0.1 μM.
In Assay 2, the 100 μM stock was added to 1×PARP buffer to prepare samples with concentrations ranging from 40 μM to 2 μM. A 10 μM stock solution was added to 1×PARP buffer to prepare samples with concentrations of 1 μM and 0.4 μM. Each tested compound was further diluted 1:4 during the assay, so the final concentrations ranged from 10 μM to 0.1 μM.

Sequence of PARP-1 (P09874 whole entry): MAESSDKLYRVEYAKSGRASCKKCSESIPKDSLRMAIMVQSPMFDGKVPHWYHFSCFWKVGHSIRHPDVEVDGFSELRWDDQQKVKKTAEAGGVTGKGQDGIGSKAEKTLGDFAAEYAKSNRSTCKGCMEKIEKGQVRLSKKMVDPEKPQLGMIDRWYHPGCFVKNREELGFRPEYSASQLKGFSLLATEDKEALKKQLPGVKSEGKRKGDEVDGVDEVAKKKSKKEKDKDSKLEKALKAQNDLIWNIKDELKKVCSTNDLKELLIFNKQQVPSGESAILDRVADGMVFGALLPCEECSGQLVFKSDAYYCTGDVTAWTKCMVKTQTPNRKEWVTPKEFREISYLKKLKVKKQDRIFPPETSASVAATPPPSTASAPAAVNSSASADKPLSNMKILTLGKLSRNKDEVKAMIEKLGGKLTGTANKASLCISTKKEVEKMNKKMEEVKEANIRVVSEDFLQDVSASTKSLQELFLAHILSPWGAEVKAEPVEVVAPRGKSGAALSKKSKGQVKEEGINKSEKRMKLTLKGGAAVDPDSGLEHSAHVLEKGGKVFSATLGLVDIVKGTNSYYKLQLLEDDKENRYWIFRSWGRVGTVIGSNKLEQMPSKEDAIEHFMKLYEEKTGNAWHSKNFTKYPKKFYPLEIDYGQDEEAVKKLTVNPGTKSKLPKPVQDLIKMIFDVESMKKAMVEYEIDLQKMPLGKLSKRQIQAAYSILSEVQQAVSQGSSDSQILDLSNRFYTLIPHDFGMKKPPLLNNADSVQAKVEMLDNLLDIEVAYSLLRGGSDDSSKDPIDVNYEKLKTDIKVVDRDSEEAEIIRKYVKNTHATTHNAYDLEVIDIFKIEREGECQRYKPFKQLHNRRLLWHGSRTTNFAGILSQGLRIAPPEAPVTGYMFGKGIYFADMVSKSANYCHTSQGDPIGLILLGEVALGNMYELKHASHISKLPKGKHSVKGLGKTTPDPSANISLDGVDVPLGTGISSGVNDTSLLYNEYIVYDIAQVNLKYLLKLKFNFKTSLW
Sequence of D4.4 type dopamine receptor (P21917 whole entry): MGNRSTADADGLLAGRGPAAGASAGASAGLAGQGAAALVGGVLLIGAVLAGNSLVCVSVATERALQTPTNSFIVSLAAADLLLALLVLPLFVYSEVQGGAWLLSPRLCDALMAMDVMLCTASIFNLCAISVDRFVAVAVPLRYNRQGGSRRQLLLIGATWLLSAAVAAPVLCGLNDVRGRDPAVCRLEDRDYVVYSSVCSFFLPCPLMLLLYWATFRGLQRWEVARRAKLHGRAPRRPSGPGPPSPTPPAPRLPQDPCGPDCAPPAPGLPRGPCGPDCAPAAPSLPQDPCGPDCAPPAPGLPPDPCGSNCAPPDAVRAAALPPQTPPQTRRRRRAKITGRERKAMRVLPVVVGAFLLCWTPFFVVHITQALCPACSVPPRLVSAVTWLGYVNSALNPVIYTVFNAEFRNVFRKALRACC

Row | half-life at 0.19 mg/ml [1] [min] | half-life at 0.19 mg/ml [2] [min] | Compound | rate of hydrolysis (in words) [1] | further results
1 | 41 | 4.7 | O=C(Oc1cccc(N2CCN(Cc3nc4ccccc4c(=O)[nH]3)CC2)c1)C1CCCCC1 [Compound L-169] | relatively rapid hydrolysis | 
2 | > 1000 | 16.5 | CCOc1ccc(C(=O)Oc2cccc(N3CCN(Cc4nc5ccccc5c(=O)[nH]4)CC3)c2)cc1 [Compound L-173] | considerably slower hydrolysis | 
3 | 134 | 29 | O=C(Oc1cccc(N2CCN(Cc3nc4ccccc4c(=O)[nH]3)CC2)c1)c1ccccc1 [Compound L-207] | relatively rapid hydrolysis | % L-207 (hydrolysis of L-207 to R-55) ([1]; 10 minutes): 97.54%; % L-207 (hydrolysis of L-207 to R-55) ([1]; 30 minutes): 89.21%; % L-207 (hydrolysis of L-207 to R-55) ([1]; 60 minutes): 77.11%; % L-207 (hydrolysis of L-207 to R-55) ([1]; 90 minutes): 64.67%; % L-207 (hydrolysis of L-207 to R-55) ([1]; 120 minutes): 52.91%; % L-207 (hydrolysis of L-207 to R-55) ([2]; 0 minutes): 99.49%; % L-207 (hydrolysis of L-207 to R-55) ([2]; 15 minutes): 74.08%; % L-207 (hydrolysis of L-207 to R-55) ([2]; 30 minutes): 47.73%; % L-207 (hydrolysis of L-207 to R-55) ([2]; 60 minutes): 6.61%; % L-207 (hydrolysis of L-207 to R-55) ([2]; 90 minutes): 0.76%; % L-207 (hydrolysis of L-207 to R-55) ([2]; 120 minutes): 0.41%; solubility in organic solvents ([3]; dimethylformamide, dimethyl sulfoxide, tetrahydrofuran, chloroform, dichloromethane, HCl in diethyl ether): soluble; solubility in water ([3]; water): non-soluble
4 |  |  | O=c1[nH]c(CN2CCN(c3ccc(O)cc3)CC2)nc2ccccc12 [Compound L-221, 2-((4-(4-hydroxyphenyl)piperazin-1-yl)methyl)quinazolin-4-one] |  | IC50 [4]: ~30 µM
5 | 377 | 54 | COc1ccc(C(=O)Oc2cccc(N3CCN(Cc4nc5ccccc5c(=O)[nH]4)CC3)c2)cc1 [Compound L-162] | slower hydrolysis than exhibited by the corresponding non-substituted aryl | 
6 | > 1000 | > 1000 | Cc1ccc(S(=O)(=O)Oc2cccc(N3CCN(Cc4nc5ccccc5c(=O)[nH]4)CC3)c2)cc1 [Compound L-163] | considerably slower hydrolysis than carboxyl esters | 
7 | 10 | 0.31 | CCC(=O)Oc1cccc(N2CCN(Cc3nc4ccccc4c(=O)[nH]3)CC2)c1 [Compound L-128] | relatively rapid hydrolysis | 
8 | > 1000 | > 1000 | CS(=O)(=O)Oc1cccc(N2CCN(Cc3nc4ccccc4c(=O)[nH]3)CC2)c1 [Compound L-164] | considerably slower hydrolysis than carboxyl esters | 
9 | 455 | 52 | COc1ccccc1C(=O)Oc1cccc(N2CCN(Cc3nc4ccccc4c(=O)[nH]3)CC2)c1 [Compound L-174] | slower hydrolysis than exhibited by the corresponding non-substituted aryl | 
10 |  |  | NC(=O)c1cccc(N)c1 [Compound 3-AB, 3-Aminobenzamide, reference compound] |  | inhibition at 5 µM ([5]; 5 μM): 21%; inhibition at 10 µM ([5]; 10 μM): 40%
11 | 480 | 7.1 | N#Cc1cccc(C(=O)Oc2cccc(N3CCN(Cc4nc5ccccc5c(=O)[nH]4)CC3)c2)c1 [Compound L-166] |  | 
12 | 750 | 58 | O=C(Oc1cccc(N2CCN(Cc3nc4ccccc4c(=O)[nH]3)CC2)c1)C12CC3CC(CC(C3)C1)C2 [Compound L-167] | relatively slow hydrolysis | 
13 | 280 | 7.5 | COc1ccc(CC(=O)Oc2cccc(N3CCN(Cc4nc5ccccc5c(=O)[nH]4)CC3)c2)cc1 [Compound L-170] |  | 
14 | > 1000 | 44 | Cc1ccccc1C(=O)Oc1cccc(N2CCN(Cc3nc4ccccc4c(=O)[nH]3)CC2)c1 [Compound L-199] |  | 
15 | 470 | 35 | O=C(Oc1cccc(N2CCN(Cc3nc4ccccc4c(=O)[nH]3)CC2)c1)c1ccc(F)cc1 [Compound L-209] | slower hydrolysis than exhibited by the corresponding non-substituted aryl | 
